Laboratory results taken from patent US9974870B2, “Compositions and methods for treatment and imaging using nanoparticles” (Washington University, priority 2014, dated 2018).
Read-outs that look alike come from different tables or passages of the source. Non-standard residues stand in square brackets, D forms with d. Residues, ends and D or L forms follow the SMILES beside them. Primed or numbered codes have the meaning given here. *: point of attachment. DOTA = O=C(O)CN1CCN(CC(=O)O)CCN(CC(=O)*)CCN(CC(=O)O)CC1; DTPA′ = chelating agent complexing 111In or 64Cu; Tyr(3-I) = N[C@@H](Cc1ccc(O)c(I)c1)C(=O)O; Orn = NCCC[C@H](N)C(=O)O; Ahx = NCCCCCC(=O)O

Experiments:
caspase-3 = target: T1, caspase-3 (Homo sapiens, UniProt P42574); assay: Caspase-3 mediated hydrolysis, enzyme kinetics by radio-HPLC; assay type: biochemical; details: caspase-3 290 pM, 37° C., pH 7.4
T1 construct: purchased Cal Biochem
T1 sequence (P42574 29-175 limits assumed): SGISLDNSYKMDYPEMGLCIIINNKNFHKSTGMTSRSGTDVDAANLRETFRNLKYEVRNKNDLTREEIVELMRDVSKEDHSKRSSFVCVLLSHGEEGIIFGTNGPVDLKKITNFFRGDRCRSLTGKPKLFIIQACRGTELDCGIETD
T1 sequence (P42574 176-277 limits assumed): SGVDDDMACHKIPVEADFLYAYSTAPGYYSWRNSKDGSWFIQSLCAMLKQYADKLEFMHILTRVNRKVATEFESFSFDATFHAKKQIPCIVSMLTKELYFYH
Procedure: However, the dimer readily converts back to single molecules under the high reducing conditions such as used to prepare the ^99mTc chelate. Kinetic analysis of caspase-3 activation with [^125I]LS370 using a radionuclide detector (radio-high-performance liquid chromatography) gave a KM and kcat of 15±3 1 μM and […], respectively.
[^125I]LS370 was dissolved in caspase buffer {100 mM NaCl, 50 mM 4-(2-hydroxyethyl)-1-piperazineethanesulfonic acid, 10 mM DTT, 1 mM ethylenediaminetetraacetic acid, 10% glycerol, and 0.1% 3-[(3-cholamidopropyl) dimethylammonio]-1-propanesulfonate, pH 7.4} at concentrations varying from 2.5 to 20 μM. […] These solutions were allowed to react at 37° C. for 180 min and were sampled every 30 min. Substrate hydrolysis was monitored by radio-high-performance liquid chromatography (Vydac, C-18, 4.6×250 mm, 1 ml/m, A=H2O, 0.1% TFA, B=ACN, 0.1% TFA; 10-90% B, 30 min, linear gradient) of these time point samples. Comparison to a standard caspase-3 substrate (Ac-DEVD-pNA) and calculation of the enzyme kinetic parameters were carried out as previously described.

MDA-MB-231 cells = assay: Cell uptake and efflux studies; assay type: cell-based, human; details: for cell uptake: untreated MDA-MB-231 cells, 2 h postincubation at 37° C.
Text: The goals of the cell-uptake studies were to (1) assess any changes in the structure-activity relationship resulting from the modular and responsive probe design and (2) evaluate the retention of the iodine containing hydrophobic peptide moiety in treated and untreated cells. Metastatic human breast MDA-MB-231 cells were used to evaluate whether the amino acid sequence modulation would enhance internalization, and how the probe would respond (intracellular) postchemotherapy. In the untreated cells, there was a higher uptake (P<0.001) of [^125I]LS734 (3.6±0.5) than [^125I]LS370 (0.3±0.3) at 2 h postincubation at 37° C. (FIG. 22A). […] The amount of iodinated fraction released by the untreated and treated cells at 3 h (post 2 h incubation and removal of excess activity) was used as a measure of the efflux activity.
MDA-MB-231 cells used for the uptake and efflux assay were grown on 24-well tissue culture plates until they were 80-90% confluent with […] cells per well. […] The experimental treatment group of cells was treated with 10 ng/ml of SN-38 (7-ethyl-10-hydroxy-camptothecin, Sigma Aldrich) for 24 h. Then, the SN-38 was removed, and the second chemotherapeutic drug, UCN-01 (Sigma Aldrich), was introduced at a concentration of […] in 0.1% BSA per well. At this point, respective radioactive solutions ([^125I]LS734 or [^125I]LS370, 0.02 μg per well; specific activities: [^125I]LS370-40×10^6 MBq/mmol; [^125I]LS734-10×10^6 MBq/mmol) were added to treated and control groups. The solutions were added drop-wise into the wells and gently mixed to ensure homogeneous distribution. The final volume per well was 240 μl, and the plates were incubated at 37° C. (5% CO2) for 2 h. After incubation, the supernatant (fraction 1) was collected, and the cells were washed twice with 250 μl of cold serum-free media. […] Fraction 2 represents the cell efflux, which is the amount of radioactivity released from cells after the 2 h uptake. […] The radioactivity in each fraction was measured in a well counter (Packard II gamma counter).

[1] = Tissue biodistribution in tumor-bearing Balb/c mice; assay type: in vivo; details: female, Balb/c, mouse, iv, 0.185 MBq, total radioactivity, 1 h post injection; for tissue uptake at 1 h: thyroid
Procedure: (§1) The structure-activity relationship was evaluated in vivo by performing a tissue biodistribution study in naive (FIG. 26) and tumor-bearing Balb/c mice (FIG. 23). […] The tumor/blood ratios for both [^125I]LS370 and [^125I]LS734 was 0.6±0.03. The tumor/muscle ratios were similar as well but higher than the tumor/blood ratios, [^125I]LS734 (2.2±0.1) and [^125I]LS370 (2.1±0.3). Thyroid uptake was 73±21 and 115±73 for [^125I]LS370 and [^125I]LS734, respectively.
(§2) All animal studies were conducted according to guidelines on the humane care and use of laboratory animals under protocols approved by the Animal Studies Committee at Washington University School of Medicine. For tissue biodistribution studies, syngeneic breast tumor models were prepared via bilateral orthotopic implantation of luciferase-transfected 4T1 mouse mammary carcinoma cells (4T1luc, 5×10^5 cells per tumor) in the mammary fat pads of 6-week-old, female Balb/c mice (NCI, Frederick, Md., USA). Studies were conducted when the tumors reached about 3 mm maximum diameter (−10 days). Healthy female Balb/c mice (n=4 per time point) were anesthetized with 1-2% vaporized isoflurane and injected via tail vein with 0.185 MBq of [^125I]LS370 or [^125I]LS734 (specific activities: [^125I]LS370-40×10^6 MBq/mmol; [^125I]LS734-10×10^6 MBq/mmol). At 1 h post injection, mice were killed. Organs of interest were removed and blotted dry. The radioactivity was measured in a gamma counter (Packard II gamma counter). Diluted standard doses (1:100) were prepared and counted along with the samples. Data points were corrected for radioactive decay. The percent injected dose per gram of tissue (% ID/g) was calculated.

4T1luc tumors = assay: as above; assay type: in vivo; details: at 1 h after tail vein injection
Procedure: as §1, §2

MMP9 [2] = target: T2, MMP9 (Homo sapiens, UniProt P14780); assay: In vitro MMP9 experiment with ^64Cu-labeled peptide-functionalized gold NPs; assay type: biochemical
T2 sequence (P14780 94-707, species assumed): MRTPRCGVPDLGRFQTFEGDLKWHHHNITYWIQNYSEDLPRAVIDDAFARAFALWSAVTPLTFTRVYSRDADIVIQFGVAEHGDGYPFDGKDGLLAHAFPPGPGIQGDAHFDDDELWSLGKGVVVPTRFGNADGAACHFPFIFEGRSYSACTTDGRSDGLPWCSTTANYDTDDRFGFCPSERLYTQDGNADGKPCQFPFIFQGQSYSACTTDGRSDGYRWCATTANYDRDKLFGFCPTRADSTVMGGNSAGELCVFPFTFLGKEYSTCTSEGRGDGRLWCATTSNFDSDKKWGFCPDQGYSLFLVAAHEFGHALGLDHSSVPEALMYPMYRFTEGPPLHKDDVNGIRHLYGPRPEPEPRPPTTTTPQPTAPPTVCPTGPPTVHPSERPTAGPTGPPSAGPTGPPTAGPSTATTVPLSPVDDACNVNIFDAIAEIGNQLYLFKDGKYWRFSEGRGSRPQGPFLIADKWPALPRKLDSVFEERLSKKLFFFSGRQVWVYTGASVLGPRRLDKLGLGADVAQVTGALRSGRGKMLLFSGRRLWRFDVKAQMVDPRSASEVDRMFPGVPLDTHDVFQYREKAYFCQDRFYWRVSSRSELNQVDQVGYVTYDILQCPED
Procedure: Once surface-functionalized with the peptide and PEG, an experiment was performed in PBS in order to characterize the ability of MMP9 to cleave the peptide present on the nanoparticle surface. In this experiment, ^64Cu was chelated to DTPA on the peptide attached to the NP. The suspension was incubated with MMP9 for 1.5 hours and then the supernatant solution was separated from the NPs by centrifugal filtration. […] To further confirm the presence of the cleaved peptide, high performance liquid chromatography (HPLC) was performed on the supernatant solutions, and co-registered UV and radioactive peaks associated with the radiolabeled peptide fragment were observed (FIG. 6).
1 mL of peptide-functionalized gold NPs was centrifuged, supernatant decanted, and resuspended in 0.1 M NH4OAc. 110 μCi ^64Cu, provided by the Washington University Cyclotron Facility, was added to the NP pellet and shaken at 45° C. for 1 hour. Radiolabeled NPs were purified from nonchelated ^64Cu by centrifugation. Then NP suspensions were incubated with 20 ng MMP9 for 1.5 hours, after which 450 μL PBS was added and supernatant was purified from the NPs by centrifugation filtration using a 10 k MW filter. Supernatant and NP pellets were counted for radioactivity in a PerkinElmer 1480 Automatic Gamma Counter.

MMP9 [3] = target: T2, MMP9; assay: Organ ratiometric SPECT imaging (kidney/lung, bladder/lung) after MMP9 pre-incubation; assay type: in vivo, C57 Black6 mice
Procedure: (§3) To further validate the specificity of the activation, an identical experiment as the one just described was performed with an ^111In-labeled non-radioactive gold nanoparticle probe, similar to a radioactive nanoparticle previously reported. An initial in vitro validation was performed; when incubated with MMP9 for 48 hours, 48% ^111In was cleaved from the nanoparticle compared to only 16% without MMP9. With this singly-labeled probe, an alternative in vivo ratiometric imaging approach was performed (FIG. 18A). Rather than compare the ratio between two gamma energy channels, uptake intensity ratios between the lungs and kidneys or bladder were quantified. Importantly, clear distinctions were observed between the MMP9 and control groups. […] Differences were also observed 5 hours after injection (FIG. 18C), where the bladder/lung ratio remained elevated in the MMP9-incubated condition (0.19±0.15) compared to the control (0.03±0.003).
The dual-radiolabeled nanocrystal suspension was separated into 50 μL samples containing 20 ng MMP9 and incubated at 37° C. for 9 hours (along with control that was incubated without MMP9). 50 μL (˜80 μCi ^199Au and 40 μCi ^111In) was then intratracheally injected into C57 Black6 mice and two-channel SPECT imaging was performed as described above. In another experiment, a similar protocol was performed with the non-radioactive gold NP core functionalized with an ^111In-labeled, MMP9-cleavable peptide. Briefly, 10 mL of 10 nm diameter gold nanoparticles (Sigma Aldrich) was centrifuged at 10 k g-force for 70 minutes, supernatant was removed, the pellet was resuspended in 1 mL of ultrapure water containing 2.2 mg mPEG-SH (MW=5000) and 1.0 mg pMMP9 peptide, and shaken overnight. Suspension was again centrifuged at 10 k g-force, supernatant removed, and the pellet was resuspended in 500 μL 0.1 M NH4OAc buffer (pH 5.5). Then 15 μL ^111InCl (5.23 mCi) was added and shaken at 45° C. for 90 minutes. Suspension was centrifuged at 10 k g-force for 90 minutes, supernatant removed, and the pellet containing 2.96 mCi was resuspended in 500 μL buffer. 50 μL aliquots with or without 10 ng MMP9 were prepared and shaken at 37° C. for 16 hours. 50 μL (˜230 μCi ^111In) was then intratracheally injected into C57 Black6 mice (n=4/group) and SPECT imaging was performed using the 245 keV channel immediately upon injection and 5 and 24 hours later.

MMP9 [4] = target: T2, MMP9; assay: In vitro MMP9 cleavage of ^111In from non-radioactive gold nanoparticle probe; assay type: biochemical
Procedure: as §3
The dual-radiolabeled nanocrystal suspension was separated into 50 μL samples containing 20 ng MMP9 and incubated at 37° C. for 9 hours (along with control that was incubated without MMP9). 50 μL (˜80 μCi ^199Au and 40 μCi ^111In) was then intratracheally injected into C57 Black6 mice and two-channel SPECT imaging was performed as described above. […]

[5] = MMP9-incubated probe, immediately upon injection
[6] = control probe without MMP9, immediately upon injection

## CC(=O)N[C@@H](CC(=O)O)C(=O)N[C@@H](CCC(=O)O)C(=O)N[C@H](C(=O)N[C@@H](CC(=O)O)C(=O)Nc1ccc([N+](=O)[O-])cc1)C(C)C [Ac-DEVD (SEQ ID NO:2)-pNA, Ac-DEVD-pNA]
caspase-3
  Km: 11 µM
  kcat: 2.4 M/s

## CC(=O)NCCCCCC(=O)N[C@@H](Cc1ccc(O)c(I)c1)C(=O)NCCCCCC(=O)N[C@@H](CC(=O)O)C(=O)N[C@@H](CCC(=O)O)C(=O)N[C@H](C(=O)N[C@@H](CC(=O)O)C(=O)NCC(=O)N[C@@H](CCCCN)C(=O)NCC(=O)N[C@@H](CS)C(N)=O)C(C)C [[^125I]LS370] (Ac-[Ahx][Tyr(3-I)][Ahx]DEVDGKGC-NH2)
MDA-MB-231 cells
  cell uptake: 0.3±0.3
[1]; 4T1luc tumor / blood, read-out: tumor/blood ratio
  tissue to tissue ratio at 1 h: 0.6 ± 0.03
[1]; 4T1luc tumor / muscle, read-out: tumor/muscle ratio
  tissue to tissue ratio at 1 h: 2.1 ± 0.3
[1]
  tissue uptake at 1 h: 73 ± 21 %ID/g

## CC[C@H](C)[C@H](NC(=O)[C@H](C)NC(=O)[C@H](CC(C)C)NC(=O)[C@H](Cc1ccc(O)c(I)c1)NC(C)=O)C(=O)NCCCCCC(=O)N1CCC[C@H]1C(=O)N[C@@H](C)C(=O)N[C@@H](CC(=O)O)C(=O)N[C@@H](CCC(=O)O)C(=O)N[C@H](C(=O)N[C@@H](CC(=O)O)C(=O)NCC(=O)N[C@@H](CCCNC(=N)N)C(=O)N[C@@H](CCCNC(=N)N)C(=O)N[C@@H](CCCNC(=N)N)C(=O)N[C@@H](CCCN)C(=O)N[C@@H](CCCNC(=N)N)C(=O)N[C@@H](CCCNC(=N)N)C(=O)N[C@@H](CCCCN)C(=O)N[C@@H](CCCCN)C(=O)N[C@@H](CCCNC(=N)N)C(=O)N[C@@H](CCCCNC(=O)CN1CCN(CC(=O)O)CCN(CC(=O)O)CCN(CC(=O)O)CC1)C(N)=O)C(C)C [[^125I]LS734] (Ac-[Tyr(3-I)]LAI[Ahx]PADEVDGRRR[Orn]RRKKRK(DOTA)-NH2)
MDA-MB-231 cells; at 3 h (post 2 h incubation and removal of excess activity), treatment SN-38 then UCN-01
  efflux activity: iodinated fraction released by untreated versus treated cells: higher amount of activity was released from untreated cells compared to treated cells
MDA-MB-231 cells
  cell uptake: 3.6±0.5
4T1luc tumors
  blood circulation: circulated longer in blood as compared to [^125I]LS370
[1]
  tissue uptake at 1 h: 115 ± 73 %ID/g

## ^64Cu-labeled nanoparticles ({DTPA′}-GPLGVRGKGYG[Ahx]C-NH2; not fully specified (residue 13); also: DTPA chelates 64Cu)
MMP9 [2]; […] incubation with MMP9, PBS, centrifugal filtration
  radioactivity observed in the supernatant after incubation with MMP9: 23%
MMP9 [2]; […], without MMP9
  radioactivity observed in the supernatant, control without MMP9: < 5%

## ^111In-labeled non-radioactive gold nanoparticle probe ({DTPA′}-GPLGVRGKGYG[Ahx]C-NH2; not fully specified (residue 13); printed as Gly-Pro-Leu-Gly-Val-Arg-Gly-Lys-Gly-Tyr-Gly-Ahx-Cys; also: 111In chelated by DTPA, Cys thiol anchored to gold nanoparticle)
MMP9 [3]; MMP9-incubated probe, 5 hours after injection
  bladder/lung uptake ratio: 0.19±0.15
MMP9 [3]; [5]
  bladder/lung uptake ratio: 0.56±0.24
  kidney/lung uptake ratio: 0.12±0.04
MMP9 [3]; control probe without MMP9, 5 hours after injection
  bladder/lung uptake ratio: 0.03±0.003
MMP9 [3]; [6]
  bladder/lung uptake ratio: 0.08±0.04
  kidney/lung uptake ratio: 0.01±0.004
MMP9 [4]; incubated with MMP9 for 48 hours
  ^111In cleaved from the nanoparticle: 48%
MMP9 [4]; without MMP9
  ^111In cleaved from the nanoparticle: 16%
